Measurements: patent US12338229B2, “Small molecule stimulators of steroid receptor coactivator-3 and methods of their use as cardioprotective and/or vascular regenerative agents” (BAYLOR COLLEGE OF MEDICINE, priority 2018, dated 2025)
Where “and” joins values, the source holds several entries; their conditions need not be identical. Equal values may be shown once.

What was measured:
[1] = system: mice after myocardial infarction; assay: Myocardial infarction model, permanent LAD ligation (echocardiography, histology, immunostaining, PET, EM); type: in vivo, ICR (CD1) mice
Experimental: Model of heart failure in adult mice. To induce myocardial infarction (MI) in 8- to 10-week-old mice, the left anterior descending (LAD) artery was permanently ligated. Briefly, mice were anesthetized with 2% isoflurane and then intubated. The heart was exposed by performing a thoracotomy through the fourth or fifth intercostal space and an 8-0 nylon suture was tied around the LAD artery. 10 uls of Adenoviral SRC-3 (Ad-SRC-3) or adenoviral GFP (Ad-GFP) at a titre of 9×10^9 pfu/ml was injected into the anterior free wall near left ventricular descending coronary artery. To assess cell cycle entry, the analog 5-ethynyl-2′-deoxyuridine (EdU; 0.2 g/L, Santa Cruz, SC-284628A) was added to the drinking water for the 9 day duration of the experiment. Cell proliferation was measured using Click-iT EdU kit (Invitrogen, C10339). The initial dose of MCB-613 was administered intraperitoneally at 20 mg/kg 2 hours after surgery. Subsequent injections of the same dose were given for 6 additional days, and then repeated doses were given for 3 days at week 9 and week 16. Mice were harvested at indicated time points for analyses.
Echocardiography. Cardiac function was determined by echocardiography (VisualSonics, Vevo 2100, 40 Mhz-550S probe). After alignment in the transverse B-mode with the papillary muscles, cardiac function was measured on M-mode images.
(§1) Histological analysis. Whole hearts were fixed with 10% formalin, embedded in paraffin, and sectioned at 7 μm intervals. Each slide had 3 or 10 sections, which started at the apex and ended at the suture ligation site (approximately 30-50 slides). Sections at the papillary level (slides 20-30) were stained with Picrosirius red to identify areas of fibrosis. Infarct size was determined using a length-based approach.
Immunostaining analysis. Immunohistochemistry and immunofluorescent staining experiments were performed on FFPE (formalin-fixed and paraffin-embedded sections). TUNEL staining to detect apoptotic cells was done using the DeadEnd™ Fluorometric TUNEL System manufacturer's protocol (Promega, GS3250).
Model of heart failure in adult mice. To induce MI in eight- to ten-week-old mice, the left anterior descending (LAD) artery was permanently ligated. Briefly, mice were anesthetized with 2% isoflurane and then intubated. The heart was exposed by performing a thoracotomy through the fourth or fifth intercostal space and an 8-0 nylon suture was tied around the LAD. The initial dose of MCB-613 was administered intraperitoneally at 20 mg/kg, two hours after surgery. Subsequent injection at the same time of the day and same dose were given for six additional days, and then repeated doses were given for three days at week nine and week 16. Mice were harvested at the indicated time points for analyses.
Echocardiography. Cardiac function was determined by echocardiography (VisualSonics, Vevo 2100, 40 Mhz-550S probe). After alignment in the transverse B-mode with the papillary muscles, cardiac function was measured on M-mode images. Animal numbers for cardiac function in FIG. 11A are Day 0 control (17); MCB-613 (15), Day 1 control (10); MCB-613 (12), Day 14 […], Day 56 control (12); MCB-613 (15), Day 70 control (8); MCB-613 (10), Day 80 control (8); MCB-613 (11), Day 133 control (3); and MCB-613 (3).
as §1, with “three (3) to ten (10)” for “3 or 10”, “approach. TUNEL staining to detect apoptotic cells was performed using the DeadEnd™ Fluorometric TUNEL System (Promega, GS3250).” for “approach.”
Electron Microscopy. […]

cardiac fibroblasts = assay: Tube formation assay; type: cell-based, mice; details: adult cardiac fibroblasts, 6 μM, 24 hours
Experimental: Tube formation assay. Cardiac fibroblasts were treated with either DMSO or 6 μM MCB-613. Twenty four hours post treatment, drug was washed off by rinsing the cells twice with PBS. The cells were then conditioned with endothelial cell growth media for 24 hours. Post conditioning, cells were plated on growth factor reduced matrigel (10 mg/ml) to allow for tube formation overnight. The next day tubes were stained with Calcein AM and imaged using the Cytation imaging system.

[2] = system: chorioallantoic membrane (CAM) of chicken eggs; assay: Chick egg CAM angiogenesis assay, topical drug; type: in vivo; details: 0.6 μM applied directly to chick eggs
Experimental: Angiogenesis assay for small molecule stimulator treatments. Five to seven day old specific-pathogen-free (SPF) certified fertilized chicken eggs (white leghorn) were used to access the chorioallantoic membrane (CAM). The total vessel area on the CAM was measured using images obtained prior to application of the drug. MCB-613 (100 μL) at a concentration of 0.6 μM was topically applied onto the surface of the CAM. The vessel area on the CAM was monitored on a daily basis following daily application of the drug. Vehicle controls were maintained throughout the experiment. Treatments were continued for four days at the end of which an image thresholding method (ImageJ) was used to quantify total vessel area on the CAM. Percent growth in vessel area was compared for control and treated eggs. n=6 eggs per condition. This experiment was repeated three times.

[3] = Toxicity profile in vitro and in vivo
[4] = system: mice after myocardial infarction; assay: Myocardial infarction model, permanent LAD ligation (echocardiography, histology, immunostaining, PET, EM); type: in vivo, ICR (CD1) mice; details: repeat injections three days at weeks 8 and 16

For `CCC1C/C(=C\c2cccnc2)C(=O)/C(=C/c2cccnc2)C1` (stereo not drawn) [MCB-613], which “18F-FDG uptake in infarct zone (cardiac PET)” value ([1]; 2 weeks post-MI) is on record?
The value was “Improved ^18F-FDG uptake in the infarct zone”.

What about the “infarct size vs saline control” value ([1]; 10 weeks post-MI, picrosirius red) of the same compound?
The value was “decrease in infarct size”.

What about the “heart weight (vs tibia length), cardiomegaly” value ([1]; 12 weeks post-MI) of the same compound?
The value was “attenuated the MI-induced cardiomegaly compensatory response”.

And the “cardiomyocyte size and fibrosis in infarct border zone” value ([1]; 12 weeks post-MI, Picrosirius red)?
The value was “cardiomyocytes were smaller and associated with less fibrosis in the infarct border zone”.

And the “infarct size (Picrosirius red, % length)” value ([1]; 12 weeks post-MI, individual hearts, control 31% and 44%)?
The value was 3% and 14% and 20% and 22%.

And the “apoptosis (TUNEL)” value ([1]; 24 hours post-MI)?
Its value is “prevents apoptosis”.

What about the average ejection fraction ([1]; 24 hours post-MI, 20 mg/kg ip two hours post-MI, control 30%) of the same compound?
The average ejection fraction was 43%.

What about the “LYZ1 granule expression in myocardium” value ([1]; 24 hours post-MI, vs control) of the same compound?
Its value is “LYZ1 granule expression was significantly increased”.

What about the “myofibrillar and mitochondrial structure (electron micrographs)” value ([1]; 72 hours post-MI) of the same compound?
The value was “prevent disorganization of myofibrillar structure and abnormal mitochondrial cristal architecture”.

And the ejection fraction maintained ([1]; from 24 hours until 19 weeks post-MI, 20 mg/kg ip 2 h post-MI and six additional days)?
The ejection fraction maintained was “above 40%”.

And the “angiogenesis in infarct border zone (CD31 immunostain)” value ([1]; three days post-MI, treated two hours post-MI)?
The value was “Increased angiogenesis was observed in the infarct border zone”.

What about the tube formation (cardiac fibroblasts) of the same compound?
Its tube formation is “stimulated tube formation”.

What about the “angiogenesis (vessel area on CAM)” value [2] of the same compound?
The value was “stimulated angiogenesis in vivo”.

What about the toxicity profile [3] of the same compound?
The toxicity profile was “low toxicity profile in vitro and in vivo”.

What about the “effect of repeat injections on ejection fraction” value [4] of the same compound?
The value was “did not alter ejection fractions”.
